Activity calls are given as the source filed them.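 Rule for the calls: active = tumour findings in long-term animal cancer tests in more than one sex, species or organ; inactive = no tumour finding and more than one negative test.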

A short description of the data set: DSSTox (CPDBAS) Carcinogenic Potency Database Summary MultiCellCall Results. The settings on record: animal carcinogenicity bioassays, multi-cell call summary. Put shortly:
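Summary call drawn from chronic long-term cancer bioassays in rats, mice, hamsters, dogs and nonhuman primates, using the most positive result per sex-species. Score: multispecies=50, multisex=30, multisite=20, summed for combinations.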
Turning to `CN(C)/N=N/c1nc[nH]c1C(N)=O`, the outcome is “active; multisite active; multisex active; multispecies active”.

Consider `CCCC/C=N/N(C)C=O`, for which the outcome is “active; multisite active; multisex active”. With `CCCN(N=O)C(N)=O`, the outcome was “active; multisex active”. As for `CN(C)[C@@H]1C(=O)C(C(N)=O)=C(O)[C@@]2(O)C(=O)C3=C(O)c4c(O)cccc4[C@@](C)(O)[C@H]3[C@H](O)[C@@H]12`, the outcome is “inactive; multisex inactive; multispecies inactive”. For `CC(=O)O[C@]1(C(C)=O)CC[C@H]2[C@@H]3C=C(Cl)C4=CC(=O)[C@@H]5C[C@@H]5[C@]4(C)[C@H]3CC[C@@]21C`, the outcome was “active; multisite active; multisex active”. In the case of `c1ccc2sc(SNC3CCCCC3)nc2c1`, the outcome is “inactive; multisex inactive”. As for `c1ccc2c(c1)Nc1ccccc1S2`, the outcome was “inactive; multisex inactive”.

As for `N#CN=C(N)N`, the outcome was “inactive; multisex inactive”. Take `Nc1ccccc1C(=O)OC/C=C/c1ccccc1`: the outcome is “active; multisite active; multisex active; multispecies active”. Consider `CC(=O)OC/C=C(C)/C=C/C=C(C)/C=C/C1=C(C)CCCC1(C)C`, for which the outcome is “active; multisex active”.

In the case of `CC1(C)C(=O)Nc2ccc(C3=NNC(=O)CC3)cc21`, the outcome is “active; multisex active”.

Turning to `CN(N=O)c1ccc(/C=C/c2ccnc3ccccc23)cc1`, the outcome was “active; multisex active”. As to `CCCCNC(=O)NS(=O)(=O)c1ccc(C)cc1`, the outcome was “inactive; multisex inactive; multispecies inactive”. The same measure for `CC/C(C)=N/O`: “active; multispecies active”; for `CC(Oc1ccc(Cl)cc1Cl)C(=O)O` (centres undefined): “inactive; multisex inactive”. In the case of `O=P(O)(O)O` it was “inactive; multisex inactive”. Take `O.O.O.O.O=C([O-])CC(O)(CC(=O)[O-])C(=O)[O-].[Fe+3]`: the outcome is “inactive; multisex inactive”. As for `C=C(Cl)CSC(=S)N(CC)CC`, the outcome was “active; multisite active; multisex active; multispecies active”.

Consider `CC(=O)c1ccc(S(=O)(=O)NC(=O)NC2CCCCC2)cc1`, for which the outcome was “inactive; multisex inactive; multispecies inactive”. As to `Cc1cnc2ccc3c(nc(N)n3C)c2n1`, the outcome was “active; multisite active; multisex active; multispecies active”. In the case of `Cc1cc(N=Nc2ccccc2C)ccc1N`, the outcome was “active; multisex active”. On to `CC(=O)NNc1ccccc1`, for which the outcome was “active; multisex active”. In the case of `CCCCCCCCCCCC[N+](C)(C)[O-]` it was “inactive; multisex inactive”. In the case of `O=[N+]([O-])c1ccc(-c2cscn2)o1`, the outcome was “active; multisite active”. Turning to `O=[N+]([O-])c1cccc2cccnc12`, the outcome was “active; multisex active”. Turning to `CCN(CC)C(=S)SSC(=S)N(CC)CC`, the outcome is “inactive; multisex inactive; multispecies inactive”.

Turning to `C1CCC(C(CC2CCCCN2)C2CCCCC2)CC1` (centres undefined), the outcome was “inactive; multisex inactive”. The same measure for `C=CC(OCC)OCC`: “inactive; multisex inactive”. As for `CCCCCCCCCCCCCCCC(=O)OC/C=C(C)/C=C/C=C(C)/C=C/C1=C(C)CCCC1(C)C`, the outcome is “inactive; multispecies inactive”. With `O=C1Nc2ccc(Cl)cc2C(c2ccccc2)=NC1O` (centres undefined), the outcome is “active; multisite active; multisex active”. On to `NC(=O)N(CCO)N=O`, for which the outcome was “active; multisite active; multisex active; multispecies active”. With `ClC/C=C/CCl`, the outcome is “active; multisex active”. In the case of `Cc1cc(OC(=O)N(C)C)n(C(C)C)n1` it was “inactive; multisex inactive”. With `COC(=O)C1=C(C)NC(C)=C(C(=O)OCC(C)(C)CN(C)Cc2ccccc2)C1c1cc([N+](=O)[O-])ccc1F` (centres undefined), the outcome is “inactive; multisex inactive”. Take `N[C@@H](CCC(=O)NNc1ccc(CO)cc1)C(=O)O`: the outcome is “inactive; multisex inactive”. In the case of `O=[N+]([O-])c1ccc(Cl)c([N+](=O)[O-])c1`, the outcome is “inactive; multisex inactive; multispecies inactive”. In the case of `CC(CN1CC(=O)NC(=O)C1)N1CC(=O)NC(=O)C1` (centres undefined) it was “active; multisite active; multispecies active”. In the case of `C=CC(O)c1ccc2c(c1)OCO2` (centres undefined) it was “active; multisite active; multisex active; multispecies active”. Turning to `CC1(C)S[C@@H]2[C@H](NC(=O)COc3ccccc3)C(=O)N2[C@H]1C(=O)O`, the outcome is “inactive; multisex inactive; multispecies inactive”.

On to `CCCCOCCO`, for which the outcome was “active; multisite active; multisex active”. As for `Cc1ccc2c(-c3ccccc3)nc(=O)n(C(C)C)c2c1`, the outcome is “inactive; multisex inactive”. With `FC(F)(F)C(Cl)Cl`, the outcome was “active; multisite active; multisex active”. Regarding `O=C1OC(O)C(C(Cl)Cl)=C1Cl` (centres undefined), the outcome was “active; multisite active; multisex active”. Consider `ClC(Cl)=C(Cl)C(Cl)=C(Cl)Cl`, for which the outcome is “active; multisex active”. Consider `CC(I)C1OCC(CO)O1` (centres undefined), for which the outcome is “active; multisite active; multisex active; multispecies active”. In the case of `ClC1(Cl)C2(Cl)C3(Cl)C4(Cl)C(Cl)(Cl)C5(Cl)C3(Cl)C1(Cl)C5(Cl)C24Cl` (centres undefined) it was “active; multisite active; multisex active; multispecies active”. As to `CC(=O)NNc1ccc(CO)cc1`, the outcome was “active; multisite active; multisex active”. Regarding `CC(C)C/C=N/N(C)C=O`, the outcome was “active; multisite active; multisex active”. As for `CC1CN(N=O)C(=O)NC1=O` (centres undefined), the outcome is “inactive; multisex inactive”.

As for `CN(C)C(=O)Cl`, the outcome was “active; multisite active; multisex active; multispecies active”. In the case of `CC/C=C(/CC)[N+](=O)[O-]` it was “active; multispecies active”; in that of `CC(=O)Nc1nnc(-c2ccc([N+](=O)[O-])o2)s1`, “active; multisite active; multispecies active”.

For `CCCCCNN`, the outcome is “active; multisite active”. As for `CCOP(=S)(OCC)Oc1cc(C)nc(C(C)C)n1`, the outcome is “inactive; multisex inactive; multispecies inactive”. With `O=c1c(CO)c/c(=N/Nc2ccc(S(=O)(=O)O)c3ccccc23)c(=O)/c1=N/Nc1ccc(S(=O)(=O)O)c2ccccc12`, the outcome is “inactive; multisex inactive”.

For the molecule `C=C/C1=C/[C@H](C)[C@](C)(OC(C)=O)C(=O)OCC2=CC[N+]3(C)CC[C@@H](OC1=O)C23[O-]` (some centres undefined), the outcome is “active; multisite active”. The same measure for `O=C(O)c1ccccc1-c1c2cc(I)c(=O)c(I)c-2oc2c(I)c(O)c(I)cc12`: “inactive; multisex inactive; multispecies inactive”. In the case of `C=Cc1cccc(C)c1`, the outcome was “inactive; multisex inactive; multispecies inactive”. The same measure for `O=S(=O)(c1ccc(Cl)cc1)c1ccc(Cl)cc1`: “inactive; multisex inactive; multispecies inactive”. As to `CC(O)CN(N=O)C(=O)NCCCl` (centres undefined), the outcome was “active; multisex active”.

Take `CCCCCCCCCCCN(C)N=O`: the outcome is “active; multisite active”.

Regarding `O=NN1CCCC1c1cccnc1` (centres undefined), the outcome is “active; multisite active; multisex active; multispecies active”. With `CN(CC(O)CO)N=O` (centres undefined), the outcome is “active; multisite active; multispecies active”. Turning to `CCCCN(CCCC)N=O`, the outcome was “active; multisite active; multispecies active”. `ClCCCl`: the outcome was “active; multisite active; multisex active; multispecies active”. With `COc1cc2c(cc1N)oc1ccccc12`, the outcome was “active; multisite active; multisex active”. In the case of `O=C(O)C(Cl)Cl` it was “active; multisex active; multispecies active”; in that of `CC(C)C=O`, “inactive; multisex inactive; multispecies inactive”; in that of `Nc1cc(Cl)c(-c2cc(Cl)c(N)cc2Cl)cc1Cl`, “inactive; multisex inactive; multispecies inactive”. On to `O=C1C2(Cl)C3(Cl)C4(Cl)C(Cl)(Cl)C5(Cl)C3(Cl)C1(Cl)C5(Cl)C24Cl` (centres undefined), for which the outcome was “active; multisex active; multispecies active”.

With `CCCOC(=O)C1c2cc3c(cc2CC(C)C1C(=O)OCCC)OCO3` (centres undefined), the outcome is “inactive; multisex inactive”. For the molecule `COc1ccc([N+](=O)[O-])cc1N=Nc1c(O)c(C(=O)Nc2cccc([N+](=O)[O-])c2)cc2ccccc12`, the outcome was “inactive; multisex inactive; multispecies inactive”. `O=NN1CCC(=O)NC1=O`: the outcome is “active; multisex active”.

In the case of `ClCC(Cl)CCl`, the outcome is “active; multisite active; multisex active; multispecies active”.

Regarding `c1ccc(N=Nc2ccccc2)cc1`, the outcome is “active; multisite active; multisex active”. For `Clc1ccc(C(c2ccccc2Cl)C(Cl)Cl)cc1` (centres undefined), the outcome was “inactive; multisex inactive”. Consider `C[N+](=O)[O-]`, for which the outcome was “active; multisite active; multisex active; multispecies active”. Regarding `O=[N+]([O-])c1cc(N(CCO)CCO)ccc1NCCO`, the outcome was “inactive; multisex inactive; multispecies inactive”.

For `CCc1nc(N)nc(N)c1-c1ccc(Cl)cc1`, the outcome was “inactive; multisex inactive; multispecies inactive”. `Oc1ccccc1O`: the outcome is “active; multisex active; multispecies active”. Take `OCc1ccco1`: the outcome is “active; multisite active; multispecies active”.

For `Nc1cc(S(=O)(=O)O)cc2cc(S(=O)(=O)O)c(N=Nc3ccc(-c4ccc(N=Nc5c(S(=O)(=O)O)cc6cc(S(=O)(=O)O)cc(N)c6c5O)cc4)cc3)c(O)c12`, the outcome is “active; multisex active”. Turning to `C#C[C@]1(OC(C)=O)CC[C@H]2[C@@H]3CCC4=C[C@@H](OC(C)=O)CC[C@@H]4[C@H]3CC[C@@]21C`, the outcome is “inactive; multispecies inactive”. In the case of `CC1(C)[C@@H](OC2O[C@H](C(=O)O)[C@@H](O)[C@H](O)[C@H]2O[C@H]2O[C@H](C(=O)O)[C@@H](O)[C@H](O)[C@H]2O)CC[C@]2(C)[C@H]3C(=O)C=C4[C@@H]5C[C@@](C)(C(=O)O)CC[C@]5(C)CC[C@@]4(C)[C@]3(C)CC[C@@H]12` (some centres undefined), the outcome was “inactive; multisex inactive”.
